Common to all, as to test: relative viability (nuclei count vs DMSO), 5 days (fraction); higher = more cells survive
Compound in test [1]: C[As](C)SC[C@H](NC(=O)CC[C@H](N)C(=O)O)C(=O)NCC(=O)O [Darinaparsin] + CS(=O)(=O)N1CCN(Cc2cc3nc(-c4cccc5[nH]ncc45)nc(N4CCOCC4)c3s2)CC1 [Pictilisib] (partner 1 µM)
An outline of the steps:
(§1)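 Relative viability was taken as the ratio of nuclei in treated wells to nuclei in vehicle wells. Lung cancer cell lines in 1536-well plates received compounds by pin tool one day after seeding, either one drug alone or a fixed anchor-drug dose plus five library-drug doses (not always all listed) in √10 steps. Nuclei were counted on 4× images after 5 days of treatment, and values are medians of duplicate plates.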

Compound in test [2]: CC1=C(C=C(C=C1)NC(=O)C2=CC(=CC=C2)C(C)(C)C#N)NC3=CC4=C(C=C3)N=CN(C4=O)C [AZ628] + COc1cccc2cc(-c3nc([C@H]4CC[C@H](C(=O)O)CC4)n4ncnc(N)c34)[nH]c12 [OSI-027] (partner 0.5 µM)
An outline of the steps:
as §1

Compound in test [3]: C[As](C)SC[C@H](NC(=O)CC[C@H](N)C(=O)O)C(=O)NCC(=O)O [Darinaparsin] + O=C(CCCCCCC(=O)Nc1ccccc1)NO [Vorinostat] (partner 1 µM)
The procedure, abridged: as §1

Compound in test [4]: C1CC2=C(C1)C=C(C=C2)OC3=NC(=C4C(=N3)N(C=N4)CC5=CC=C(C=C5)C6=CC=CC=C6)N[C@@H](CC7=CC=CC=C7)CO [QS11] + Cc1cc(Nc2cc(N3CCN(C)CC3)nc(Sc3ccc(NC(=O)C4CC4)cc3)n2)n[nH]1 [Tozasertib] (partner 0.1 µM)
The procedure, abridged: as §1

As to NCI-H520, the relative viability in test [1] (first compound 0.08 µM) worked out at 0.287; in test [1] (first compound 0.8 µM), 0.339; in test [1] (first compound 2.53 µM) it was 0.241; in test [1] (first compound 8 µM), 0.277; in test [2] (first compound 0.08 µM) it was 0.262; in test [2] (first compound 0.253 µM), 0.21. In addition, the relative viability in test [2] (first compound 0.8 µM) was found to be 0.206; in test [2] (first compound 2.53 µM), 0.203; in test [2] (first compound 8 µM), 0.232; in test [3] (first compound 0.08 µM), 0.737; in test [3] (first compound 0.8 µM), 0.723; in test [3] (first compound 2.53 µM), 0.735. Moreover, the relative viability in test [3] (first compound 8 µM) is 0.785; in test [4] (first compound 0.08 µM), 0.465; in test [4] (first compound 0.253 µM) it was 0.454; in test [4] (first compound 0.8 µM), 0.503; in test [4] (first compound 2.53 µM) it was 0.418; in test [4] (first compound 8 µM), 0.407.

Consider NCI-H596, for which the relative viability in test [1] (first compound 0.08 µM) was found to be 0.396; in test [1] (first compound 0.8 µM) it was 0.397; in test [1] (first compound 2.53 µM), 0.416; in test [1] (first compound 8 µM) it was 0.378; in test [2] (first compound 0.08 µM), 0.715; in test [2] (first compound 0.253 µM), 0.67. Further, the relative viability stood at 0.818 in test [2] (first compound 0.8 µM); 0.721 in test [2] (first compound 2.53 µM); 0.528 in test [2] (first compound 8 µM); 0.543 in test [3] (first compound 0.08 µM); 0.632 in test [3] (first compound 0.8 µM); 0.576 in test [3] (first compound 2.53 µM). In addition, the relative viability in test [3] (first compound 8 µM) was found to be 0.543; in test [4] (first compound 0.08 µM), 0.875; in test [4] (first compound 0.253 µM), 0.879; in test [4] (first compound 0.8 µM), 0.923; in test [4] (first compound 2.53 µM), 0.93; in test [4] (first compound 8 µM), 1.13.

Regarding NCI-H647, the relative viability stood at 0.449 in test [1] (first compound 0.08 µM); 0.396 in test [1] (first compound 0.8 µM); 0.488 in test [1] (first compound 2.53 µM); 0.47 in test [1] (first compound 8 µM); 0.666 in test [2] (first compound 0.08 µM); 0.722 in test [2] (first compound 0.253 µM). Besides, the relative viability in test [2] (first compound 0.8 µM) was determined as 0.495; in test [2] (first compound 2.53 µM), 0.537; in test [2] (first compound 8 µM), 0.462; in test [3] (first compound 0.08 µM), 0.608; in test [3] (first compound 0.8 µM) it was 0.751; in test [3] (first compound 2.53 µM), 0.539. In addition, the relative viability was determined as 0.572 in test [3] (first compound 8 µM); 0.287 in test [4] (first compound 0.08 µM); 0.268 in test [4] (first compound 0.253 µM); 0.291 in test [4] (first compound 0.8 µM); 0.323 in test [4] (first compound 2.53 µM); 0.197 in test [4] (first compound 8 µM).

In the case of NCI-H650, the relative viability amounted to 0.856 in test [1] (first compound 0.08 µM); 0.834 in test [1] (first compound 0.8 µM); 0.922 in test [1] (first compound 2.53 µM); 1.13 in test [1] (first compound 8 µM); 0.664 in test [2] (first compound 0.08 µM); 0.687 in test [2] (first compound 0.253 µM). For the same cell line, the relative viability in test [2] (first compound 0.8 µM) turned out to be 0.766; in test [2] (first compound 2.53 µM), 0.689; in test [2] (first compound 8 µM), 0.678; in test [3] (first compound 0.08 µM), 0.335; in test [3] (first compound 0.8 µM) it was 0.408; in test [3] (first compound 2.53 µM), 0.427. Further, the relative viability amounted to 0.423 in test [3] (first compound 8 µM); 0.65 in test [4] (first compound 0.08 µM); 0.759 in test [4] (first compound 0.253 µM); 0.728 in test [4] (first compound 0.8 µM); 0.641 in test [4] (first compound 2.53 µM); 0.536 in test [4] (first compound 8 µM).

On to NCI-H661, for which the relative viability was 0.422 in test [1] (first compound 0.08 µM); 0.4 in test [1] (first compound 0.8 µM); 0.491 in test [1] (first compound 2.53 µM); 0.42 in test [1] (first compound 8 µM); 0.631 in test [2] (first compound 0.08 µM); 0.617 in test [2] (first compound 0.253 µM). For the same cell line, the relative viability stood at 0.513 in test [2] (first compound 0.8 µM); 0.593 in test [2] (first compound 2.53 µM); 0.47 in test [2] (first compound 8 µM); 0.86 in test [3] (first compound 0.08 µM); 0.729 in test [3] (first compound 0.8 µM); 0.753 in test [3] (first compound 2.53 µM). Moreover, the relative viability in test [3] (first compound 8 µM) is 0.858; in test [4] (first compound 0.08 µM), 0.36; in test [4] (first compound 0.253 µM), 0.375; in test [4] (first compound 0.8 µM) it was 0.299; in test [4] (first compound 2.53 µM), 0.353; in test [4] (first compound 8 µM) it was 0.343.

In the case of NCI-H727, the relative viability in test [1] (first compound 0.08 µM) was determined as 0.405; in test [1] (first compound 0.8 µM), 0.425; in test [1] (first compound 2.53 µM), 0.297; in test [1] (first compound 8 µM), 0.465; in test [2] (first compound 0.08 µM) it was 0.626; in test [2] (first compound 0.253 µM), 0.402. Further, the relative viability in test [2] (first compound 0.8 µM) was found to be 0.328; in test [2] (first compound 2.53 µM), 0.397; in test [2] (first compound 8 µM), 0.338; in test [3] (first compound 0.08 µM), 1.24; in test [3] (first compound 0.8 µM), 1.14; in test [3] (first compound 2.53 µM), 1.16. In addition, the relative viability came to 1.36 in test [3] (first compound 8 µM); 0.58 in test [4] (first compound 0.08 µM); 0.602 in test [4] (first compound 0.253 µM); 0.539 in test [4] (first compound 0.8 µM); 0.647 in test [4] (first compound 2.53 µM); 0.511 in test [4] (first compound 8 µM).

For the cell line NCI-H838, the relative viability in test [1] (first compound 0.08 µM) was 0.481; in test [1] (first compound 0.8 µM) it was 0.407; in test [1] (first compound 2.53 µM), 0.39; in test [1] (first compound 8 µM), 0.472; in test [2] (first compound 0.08 µM), 0.487; in test [2] (first compound 0.253 µM), 0.413. The relative viability in test [2] (first compound 0.8 µM) is 0.303; in test [2] (first compound 2.53 µM), 0.325; in test [2] (first compound 8 µM) it was 0.354; in test [3] (first compound 0.08 µM), 0.704; in test [3] (first compound 0.8 µM), 0.738; in test [3] (first compound 2.53 µM), 0.728. Further, the relative viability came to 0.76 in test [3] (first compound 8 µM); 0.293 in test [4] (first compound 0.08 µM); 0.276 in test [4] (first compound 0.253 µM); 0.232 in test [4] (first compound 0.8 µM); 0.224 in test [4] (first compound 2.53 µM); 0.209 in test [4] (first compound 8 µM).
